Measured values published in US6461638B1, “Laxative compositions and method for making same” (Techni-Pharma, priority 1996, dated 2002).

Assay: Effervescence measure by release of CO2, Bernard's calcimeter, water heated to 37° C.
Assay type: physicochemical
Conditions: acid compound mixed with Na bicarbonate
Text: Effervescence Measure by Release of CO2
Working of the Bernard's calcimeter.
The assay consists in verifying the working of the equipment of the Bernard's calcimeter.
A little modification has been made on the rubber stopper of the lateral neck by adding a tap. This addition is necessary until at time 0, the experiment begins with an inner pressure equal to the atmospheric pressure.
Introduce a saturated sodium chloride solution in the flask and the graduated tube
Adjust the level of the graduated tube before starting the experiment
Lay on the magnetic heating stirrer the flask containing 100 ml of distilled water at 37° C.
Fill up the flask with a stopper previously fixed at the end of the releasing tube of CO2
Introduce the suppository in the flask without contact occurring between the suppository and the water
Verify again the sodium chloride level in the graduated tube before turning off the tap of the side stopper
Turn on the stirrer and drop the suppository, without forget to unlock the chronometer
Thus, it is necessary to heat the water until 37° C. Thus a magnetic heating stirrer has been used.

SMILES: O=C1CCC(=O)N1 [succinimide]
- CO2 release (in words): only induces a reduced and delayed release
